Data: the kinase profiling compilation of Christmann-Franck et al. (2016)

Assays:
Assay in all cases: Caliper, Mobility shift assay off-chip
[1] = target: MKNK1 (human) (UniProt Q9BUB5)
[2] = target: AXL (human) (UniProt P30530)
[3] = target: INSRR (human) (UniProt P14616)
[4] = target: MAPK13 (human) (UniProt O15264)
[5] = target: NTRK1 (human) (UniProt P04629)
[6] = target: MAPK3 (human) (UniProt P27361)
[7] = target: EPHA4 (human) (UniProt P54764)
[8] = target: FLT3 (human) (UniProt P36888)
[9] = target: MAPK9 (human) (UniProt P45984)
[10] = target: RPS6KA1 KD1 KD2 (human) (UniProt Q15418)
[11] = target: STK38L (human) (UniProt Q9Y2H1)
[12] = target: AURKB (human) (UniProt Q96GD4)
[13] = target: GSK3A (human) (UniProt P49840)
[14] = target: CSNK1G3 (human) (UniProt Q9Y6M4)
[15] = target: ROCK2 (human) (UniProt O75116)
[16] = target: HCK (human) (UniProt P08631)
[17] = target: EPHA6 (human) (UniProt Q9UF33)
[18] = target: MAPKAPK3 (human) (UniProt Q16644)
[19] = target: CAMK4 (human) (UniProt Q16566)
[20] = target: AKT1 (human) (UniProt P31749)
[21] = target: TBK1 (human) (UniProt Q9UHD2)
[22] = target: SGK1 (human) (UniProt O00141)
[23] = target: AKT3 (human) (UniProt Q9Y243)
[24] = target: EPHA3 (human) (UniProt P29320)
[25] = target: PRKACB (human) (UniProt P22694)
[26] = target: MERTK (human) (UniProt Q12866)
[27] = target: EPHA8 (human) (UniProt P29322)
[28] = target: CLK3 (human) (UniProt P49761)
[29] = target: STK4 (human) (UniProt Q13043)
[30] = target: MAPK8 (human) (UniProt P45983)
[31] = target: PDK4 (human) (UniProt Q16654)
[32] = target: RPS6KA2 KD1 KD2 (human) (UniProt Q15349)
[33] = target: RET (human) (UniProt P07949)
[34] = target: RPS6KA3 KD1 KD2 (human) (UniProt P51812); conditions: compound 0.2 µM

Chain of PDK4 (human) (Q16654 whole entry, looked up): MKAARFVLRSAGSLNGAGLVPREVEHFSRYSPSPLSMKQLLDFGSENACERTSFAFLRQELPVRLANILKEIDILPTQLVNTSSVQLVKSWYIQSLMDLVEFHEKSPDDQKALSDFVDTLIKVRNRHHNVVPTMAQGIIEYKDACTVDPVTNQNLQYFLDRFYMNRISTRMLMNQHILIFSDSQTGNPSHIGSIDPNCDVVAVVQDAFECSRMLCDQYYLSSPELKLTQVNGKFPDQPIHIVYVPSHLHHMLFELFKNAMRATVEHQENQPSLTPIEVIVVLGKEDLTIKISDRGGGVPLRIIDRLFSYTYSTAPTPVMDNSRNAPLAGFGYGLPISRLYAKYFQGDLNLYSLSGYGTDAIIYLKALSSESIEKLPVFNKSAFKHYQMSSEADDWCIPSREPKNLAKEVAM
Chain of MAPK3 (human) (P27361 whole entry, looked up): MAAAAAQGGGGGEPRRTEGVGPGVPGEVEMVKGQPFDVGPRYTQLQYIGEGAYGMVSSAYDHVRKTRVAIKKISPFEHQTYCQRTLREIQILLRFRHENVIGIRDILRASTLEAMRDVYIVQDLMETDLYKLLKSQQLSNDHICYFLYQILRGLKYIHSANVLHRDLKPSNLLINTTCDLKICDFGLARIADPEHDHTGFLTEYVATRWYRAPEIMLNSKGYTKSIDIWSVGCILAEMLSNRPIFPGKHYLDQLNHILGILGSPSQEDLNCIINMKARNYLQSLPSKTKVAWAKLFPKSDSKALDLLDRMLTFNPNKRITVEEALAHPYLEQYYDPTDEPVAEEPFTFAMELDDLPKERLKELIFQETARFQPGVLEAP
Chain of NTRK1 (human) (P04629 whole entry, looked up): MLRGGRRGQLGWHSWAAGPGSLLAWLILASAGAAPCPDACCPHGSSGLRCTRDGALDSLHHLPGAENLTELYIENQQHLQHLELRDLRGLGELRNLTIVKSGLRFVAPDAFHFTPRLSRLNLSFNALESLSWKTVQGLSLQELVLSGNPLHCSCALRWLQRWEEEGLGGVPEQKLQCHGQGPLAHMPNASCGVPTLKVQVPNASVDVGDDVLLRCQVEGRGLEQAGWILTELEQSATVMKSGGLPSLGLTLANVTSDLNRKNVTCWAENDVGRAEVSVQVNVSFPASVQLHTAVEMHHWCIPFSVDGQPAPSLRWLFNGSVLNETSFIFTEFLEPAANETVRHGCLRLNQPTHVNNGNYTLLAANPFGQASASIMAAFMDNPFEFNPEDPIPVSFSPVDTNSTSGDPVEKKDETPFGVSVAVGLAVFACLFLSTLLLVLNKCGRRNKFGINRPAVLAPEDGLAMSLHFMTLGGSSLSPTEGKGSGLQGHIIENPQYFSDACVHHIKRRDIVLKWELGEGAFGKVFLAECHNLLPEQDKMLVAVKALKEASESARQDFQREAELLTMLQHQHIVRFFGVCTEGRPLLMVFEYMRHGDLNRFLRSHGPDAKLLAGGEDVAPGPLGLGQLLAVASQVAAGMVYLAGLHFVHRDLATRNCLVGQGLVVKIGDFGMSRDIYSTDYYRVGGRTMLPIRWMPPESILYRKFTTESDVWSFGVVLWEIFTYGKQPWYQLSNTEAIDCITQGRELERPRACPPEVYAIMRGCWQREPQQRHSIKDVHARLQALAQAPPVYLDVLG
Chain of GSK3A (human) (P49840 whole entry, looked up): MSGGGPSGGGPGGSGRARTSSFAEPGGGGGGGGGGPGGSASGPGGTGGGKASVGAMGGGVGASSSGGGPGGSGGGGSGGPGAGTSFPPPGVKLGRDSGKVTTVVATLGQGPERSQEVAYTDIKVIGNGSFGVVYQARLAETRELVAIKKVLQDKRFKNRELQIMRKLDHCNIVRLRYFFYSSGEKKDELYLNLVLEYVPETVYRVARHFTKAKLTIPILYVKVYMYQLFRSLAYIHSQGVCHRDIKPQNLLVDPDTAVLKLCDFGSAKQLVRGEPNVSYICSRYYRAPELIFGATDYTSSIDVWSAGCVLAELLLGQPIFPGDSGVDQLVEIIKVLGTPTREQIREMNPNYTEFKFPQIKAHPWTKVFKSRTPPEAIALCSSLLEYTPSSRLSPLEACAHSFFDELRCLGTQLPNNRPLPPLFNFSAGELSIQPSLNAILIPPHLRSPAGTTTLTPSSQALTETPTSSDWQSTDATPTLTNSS
Chain of EPHA6 (human) (Q9UF33 whole entry, looked up): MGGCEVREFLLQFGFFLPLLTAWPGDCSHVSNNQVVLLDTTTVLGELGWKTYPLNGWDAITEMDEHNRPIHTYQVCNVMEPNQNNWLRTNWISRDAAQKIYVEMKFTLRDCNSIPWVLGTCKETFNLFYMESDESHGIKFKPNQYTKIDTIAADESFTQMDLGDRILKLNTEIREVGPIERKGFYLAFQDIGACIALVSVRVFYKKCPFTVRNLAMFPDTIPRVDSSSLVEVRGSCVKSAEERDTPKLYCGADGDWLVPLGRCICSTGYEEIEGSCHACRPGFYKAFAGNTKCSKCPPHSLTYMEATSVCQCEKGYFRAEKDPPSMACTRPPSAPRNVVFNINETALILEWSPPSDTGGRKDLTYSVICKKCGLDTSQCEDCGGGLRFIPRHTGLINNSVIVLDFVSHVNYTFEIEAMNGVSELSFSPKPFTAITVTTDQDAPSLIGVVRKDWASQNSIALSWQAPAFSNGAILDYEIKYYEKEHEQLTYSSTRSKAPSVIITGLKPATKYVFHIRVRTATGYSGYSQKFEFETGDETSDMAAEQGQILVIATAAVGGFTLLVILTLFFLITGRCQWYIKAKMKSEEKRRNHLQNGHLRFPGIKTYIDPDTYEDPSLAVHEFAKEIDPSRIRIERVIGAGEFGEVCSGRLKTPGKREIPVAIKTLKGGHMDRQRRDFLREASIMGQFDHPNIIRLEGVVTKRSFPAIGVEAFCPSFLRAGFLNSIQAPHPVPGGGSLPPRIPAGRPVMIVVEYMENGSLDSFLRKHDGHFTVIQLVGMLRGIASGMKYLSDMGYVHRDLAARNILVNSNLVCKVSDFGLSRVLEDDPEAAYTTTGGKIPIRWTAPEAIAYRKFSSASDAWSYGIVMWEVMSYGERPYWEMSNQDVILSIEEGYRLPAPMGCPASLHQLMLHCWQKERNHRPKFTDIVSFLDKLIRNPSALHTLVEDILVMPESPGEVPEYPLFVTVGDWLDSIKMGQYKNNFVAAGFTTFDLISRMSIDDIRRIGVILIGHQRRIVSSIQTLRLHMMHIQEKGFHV
Chain of MAPK13 (human) (O15264 whole entry, looked up): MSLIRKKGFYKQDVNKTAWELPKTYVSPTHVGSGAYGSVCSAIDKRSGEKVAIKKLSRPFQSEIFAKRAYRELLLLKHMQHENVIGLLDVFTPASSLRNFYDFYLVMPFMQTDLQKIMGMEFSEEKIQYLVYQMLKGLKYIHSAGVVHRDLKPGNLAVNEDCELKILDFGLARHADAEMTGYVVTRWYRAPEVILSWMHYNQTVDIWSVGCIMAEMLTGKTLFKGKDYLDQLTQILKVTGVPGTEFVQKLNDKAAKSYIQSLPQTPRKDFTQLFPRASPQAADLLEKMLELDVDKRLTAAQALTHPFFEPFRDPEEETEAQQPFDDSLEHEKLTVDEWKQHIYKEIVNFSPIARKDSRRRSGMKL
Chain of MAPKAPK3 (human) (Q16644 whole entry, looked up): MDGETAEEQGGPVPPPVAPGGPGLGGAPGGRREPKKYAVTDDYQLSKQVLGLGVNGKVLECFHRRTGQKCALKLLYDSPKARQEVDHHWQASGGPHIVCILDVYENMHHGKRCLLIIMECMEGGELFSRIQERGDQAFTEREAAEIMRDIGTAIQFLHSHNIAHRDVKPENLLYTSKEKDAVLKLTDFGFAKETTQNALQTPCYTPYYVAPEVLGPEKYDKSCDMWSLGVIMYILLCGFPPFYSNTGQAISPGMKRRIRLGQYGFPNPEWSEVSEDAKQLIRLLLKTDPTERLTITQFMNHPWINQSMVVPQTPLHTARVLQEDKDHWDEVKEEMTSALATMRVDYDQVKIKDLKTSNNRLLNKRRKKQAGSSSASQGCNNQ
Chain of FLT3 (human) (P36888 whole entry, looked up): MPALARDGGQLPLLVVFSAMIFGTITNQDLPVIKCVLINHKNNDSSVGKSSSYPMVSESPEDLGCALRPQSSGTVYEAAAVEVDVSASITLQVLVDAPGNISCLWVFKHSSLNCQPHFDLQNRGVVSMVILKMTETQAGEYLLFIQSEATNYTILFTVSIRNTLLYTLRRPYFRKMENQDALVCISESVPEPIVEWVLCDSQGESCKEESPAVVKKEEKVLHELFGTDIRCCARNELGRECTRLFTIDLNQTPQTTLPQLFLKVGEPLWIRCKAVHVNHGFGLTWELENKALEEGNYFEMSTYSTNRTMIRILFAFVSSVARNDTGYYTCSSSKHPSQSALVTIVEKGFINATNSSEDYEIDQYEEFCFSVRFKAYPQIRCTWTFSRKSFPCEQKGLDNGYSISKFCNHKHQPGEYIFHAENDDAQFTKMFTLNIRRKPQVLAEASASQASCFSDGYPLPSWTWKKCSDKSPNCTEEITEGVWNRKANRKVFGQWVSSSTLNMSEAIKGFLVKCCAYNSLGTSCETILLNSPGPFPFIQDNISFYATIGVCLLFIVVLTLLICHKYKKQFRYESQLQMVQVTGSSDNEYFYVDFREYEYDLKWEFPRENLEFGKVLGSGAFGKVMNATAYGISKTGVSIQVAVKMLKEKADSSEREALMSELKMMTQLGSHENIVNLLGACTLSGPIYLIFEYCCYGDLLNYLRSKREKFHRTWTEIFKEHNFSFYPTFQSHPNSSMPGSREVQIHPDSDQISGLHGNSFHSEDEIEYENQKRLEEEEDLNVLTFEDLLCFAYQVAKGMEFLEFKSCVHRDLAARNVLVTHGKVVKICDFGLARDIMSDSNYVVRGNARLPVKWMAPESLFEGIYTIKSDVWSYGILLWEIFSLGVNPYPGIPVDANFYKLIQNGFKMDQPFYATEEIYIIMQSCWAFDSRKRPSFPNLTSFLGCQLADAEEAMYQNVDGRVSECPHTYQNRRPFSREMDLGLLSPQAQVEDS

For `CNC(=O)c1ccccc1Sc1ccc2c(/C=C/c3ccccn3)n[nH]c2c1`, the inhibition ([1]; compound 0.001 µM) was -6.1%, the inhibition ([1]; compound 0.02 µM) was 4.1% and the inhibition ([2]; compound 0.001 µM) was -0.8%. For the same compound, the inhibition ([2]; compound 0.02 µM) was 4.1%, the inhibition ([3]; compound 0.001 µM) was -5.2% and the inhibition ([3]; compound 0.02 µM) was -8.3%. The inhibition ([4]; compound 0.001 µM) was -3.3%, the inhibition ([4]; compound 0.02 µM) was -3.7% and the inhibition ([5]; compound 0.001 µM) was 2.9%. For the same compound, the inhibition ([5]; compound 0.02 µM) was 21.6%, the inhibition ([6]; compound 0.001 µM) was -4.1% and the inhibition ([6]; compound 0.02 µM) was -6.1%. It also gave an inhibition ([7]; compound 0.001 µM) of -6.8%, an inhibition ([7]; compound 0.02 µM) of -4.3% and an inhibition ([8]; compound 0.02 µM) of 14.8%. The inhibition ([9]; compound 0.001 µM) was -9.7%, the inhibition ([9]; compound 0.02 µM) was -9.3% and the inhibition ([10]; compound 0.001 µM) was -5.4%. The inhibition ([10]; compound 0.02 µM) was -2.8%, the inhibition ([11]; compound 0.001 µM) was 8.1% and the inhibition ([11]; compound 0.02 µM) was -0.1%. The inhibition ([12]; compound 0.001 µM) was 5.9%, the inhibition ([12]; compound 0.02 µM) was 48.4% and the inhibition ([13]; compound 0.001 µM) was 2.4%. For the same compound, the inhibition ([13]; compound 0.02 µM) was 0.2%, the inhibition ([14]; compound 0.001 µM) was -3.7% and the inhibition ([14]; compound 0.02 µM) was -2.5%. The inhibition ([15]; compound 0.001 µM) was 1.6%, the inhibition ([15]; compound 0.02 µM) was -4.7% and the inhibition ([16]; compound 0.02 µM) was -7.8%. The inhibition ([17]; compound 0.02 µM) was 0.3%, the inhibition ([18]; compound 0.001 µM) was -0.7% and the inhibition ([18]; compound 0.02 µM) was -5.2%. For the same compound, the inhibition ([19]; compound 0.001 µM) was -4%, the inhibition ([19]; compound 0.02 µM) was -4.7% and the inhibition ([20]; compound 0.001 µM) was -4.4%. For the same compound, the inhibition ([20]; compound 0.02 µM) was -4.8%, the inhibition ([21]; compound 0.001 µM) was -3.3% and the inhibition ([21]; compound 0.02 µM) was -2%. The inhibition ([22]; compound 0.001 µM) was 11.3%, the inhibition ([22]; compound 0.02 µM) was -1.8% and the inhibition ([23]; compound 0.001 µM) was -5.4%. The inhibition ([23]; compound 0.02 µM) was -5.5%, the inhibition ([24]; compound 0.001 µM) was -7.7% and the inhibition ([24]; compound 0.02 µM) was -4.2%. It also gave an inhibition ([25]; compound 0.001 µM) of -7.3%, an inhibition ([25]; compound 0.02 µM) of -10.6% and an inhibition ([26]; compound 0.001 µM) of 1%. The inhibition ([26]; compound 0.02 µM) was 3.9%, the inhibition ([27]; compound 0.001 µM) was -5% and the inhibition ([27]; compound 0.02 µM) was -4.7%. For the same compound, the inhibition ([28]; compound 0.001 µM) was 10.3%, the inhibition ([28]; compound 0.02 µM) was -5.1% and the inhibition ([29]; compound 0.001 µM) was -5.9%. For the same compound, the inhibition ([29]; compound 0.02 µM) was 2%, the inhibition ([30]; compound 0.001 µM) was -3.3% and the inhibition ([30]; compound 0.02 µM) was -3.5%. The inhibition ([31]; compound 0.001 µM) was 0.1%, the inhibition ([31]; compound 0.02 µM) was -0.5% and the inhibition ([32]; compound 0.001 µM) was -0.7%. The inhibition ([32]; compound 0.02 µM) was 6%.

`CCN(CC)CCNC(=O)c1c(C)[nH]c(/C=C2\C(=O)Nc3ccc(F)cc32)c1C` gave an inhibition ([1]; compound 0.2 µM) of 7.4%, an inhibition ([1]; compound 4.0 µM) of 30.3% and an inhibition ([2]; compound 0.2 µM) of 96.8%. For the same compound, the inhibition ([2]; compound 4.0 µM) was 102%, the inhibition ([3]; compound 0.2 µM) was 75.7% and the inhibition ([3]; compound 4.0 µM) was 101%. The inhibition ([4]; compound 0.2 µM) was -3.4%, the inhibition ([4]; compound 4.0 µM) was -4.3% and the inhibition ([5]; compound 0.2 µM) was 99.7%. The inhibition ([5]; compound 4.0 µM) was 101%, the inhibition ([6]; compound 0.2 µM) was -4.8% and the inhibition ([6]; compound 4.0 µM) was -0.9%. The inhibition ([7]; compound 0.2 µM) was 2.1%, the inhibition ([7]; compound 4.0 µM) was 40.8% and the inhibition ([8]; compound 0.2 µM) was 100%. For the same compound, the inhibition ([8]; compound 4.0 µM) was 102%, the inhibition ([9]; compound 0.2 µM) was -8.7% and the inhibition ([9]; compound 4.0 µM) was -15.7%. The inhibition ([10]; compound 0.2 µM) was 53.9%, the inhibition ([11]; compound 0.2 µM) was 6.1% and the inhibition ([11]; compound 4.0 µM) was 32.7%. It also gave an inhibition ([12]; compound 0.2 µM) of 46%, an inhibition ([12]; compound 4.0 µM) of 90% and an inhibition ([13]; compound 0.2 µM) of 3.3%. It also gave an inhibition ([13]; compound 4.0 µM) of 21.8%, an inhibition ([33]; compound 0.2 µM) of 99.2% and an inhibition ([33]; compound 4.0 µM) of 103%. The inhibition ([15]; compound 0.2 µM) was 20%, the inhibition ([15]; compound 4.0 µM) was 76.7% and the inhibition ([16]; compound 0.2 µM) was 38%. The inhibition ([16]; compound 4.0 µM) was 94.6%, the inhibition ([17]; compound 0.2 µM) was 43.4% and the inhibition ([17]; compound 4.0 µM) was 92.7%. For the same compound, the inhibition ([18]; compound 0.2 µM) was 1.2%, the inhibition ([18]; compound 4.0 µM) was 3.2% and the inhibition ([19]; compound 0.2 µM) was 15.7%. It also gave an inhibition ([19]; compound 4.0 µM) of 80.8%, an inhibition ([20]; compound 0.2 µM) of -0.8% and an inhibition ([20]; compound 4.0 µM) of 35.7%. It also gave an inhibition ([21]; compound 0.2 µM) of 28.1%, an inhibition ([21]; compound 4.0 µM) of 87.5% and an inhibition ([22]; compound 0.2 µM) of 28.6%. For the same compound, the inhibition ([22]; compound 4.0 µM) was 87.8%, the inhibition ([23]; compound 0.2 µM) was 2.3% and the inhibition ([23]; compound 4.0 µM) was 44.8%. The inhibition ([24]; compound 0.2 µM) was -0.2%, the inhibition ([24]; compound 4.0 µM) was 21.2% and the inhibition ([25]; compound 0.2 µM) was -0.1%. The inhibition ([25]; compound 4.0 µM) was 48.3%, the inhibition ([26]; compound 0.2 µM) was 96% and the inhibition ([26]; compound 4.0 µM) was 104%. It also gave an inhibition ([27]; compound 0.2 µM) of -0.2%, an inhibition ([27]; compound 4.0 µM) of 27.7% and an inhibition [34] of 61.7%. The inhibition ([28]; compound 0.2 µM) was 9.2%, the inhibition ([28]; compound 4.0 µM) was 37% and the inhibition ([29]; compound 0.2 µM) was 92.8%. The inhibition ([29]; compound 4.0 µM) was 103%, the inhibition ([30]; compound 0.2 µM) was -3.9% and the inhibition ([30]; compound 4.0 µM) was -16%. The inhibition ([31]; compound 0.2 µM) was 1.6% and the inhibition ([31]; compound 4.0 µM) was 22.6%.
